Assay results published in PubChem BioAssay (NCI).
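Five compound concentrations were applied to cells in 96-well plates for 48 hours; endpoints were derived by simple linear interpolation of the resulting dose-response curve. The concentration for full growth arrest is given as TGI.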

Tests used:
Assay in all cases: inhibition of tumour cell growth, NCI panel, 48 h
[1] = test system: 786-0 renal
[2] = test system: A498 renal
[3] = test system: A549 NSCLC
[4] = test system: ACHN renal
[5] = test system: BT-549 breast
[6] = test system: CAKI-1 renal
[7] = test system: CCRF-CEM leukemia
[8] = test system: COLO 205 colon
[9] = test system: DU-145 prostate
[10] = test system: EKVX NSCLC
[11] = test system: HCC-2998 colon
[12] = test system: HCT-116 colon
[13] = test system: HCT-15 colon
[14] = test system: HL-60(TB) leukemia
[15] = test system: HOP-62 NSCLC
[16] = test system: HOP-92 NSCLC
[17] = test system: HS 578T breast
[18] = test system: HT29 colon
[19] = test system: IGROV1 ovarian
[20] = test system: K-562 leukemia
[21] = test system: KM12 colon
[22] = test system: LOX IMVI melanoma
[23] = test system: M14 melanoma
[24] = test system: MALME-3M melanoma
[25] = test system: MCF7 breast
[26] = test system: MDA-MB-231 breast
[27] = test system: MDA-MB-435
[28] = test system: MDA-N
[29] = test system: MOLT-4 leukemia
[30] = test system: NCI-H226 lung
[31] = test system: NCI-H23 lung
[32] = test system: NCI-H460 lung
[33] = test system: NCI-H522 lung
[34] = test system: NCI/ADR-RES ovarian
[35] = test system: OVCAR-3 ovarian
[36] = test system: OVCAR-4 ovarian
[37] = test system: OVCAR-5 ovarian
[38] = test system: OVCAR-8 ovarian
[39] = test system: PC-3 prostate
[40] = test system: RPMI-8226 leukemia
[41] = test system: RXF 393 renal
[42] = test system: SF-268 CNS
[43] = test system: SF-295 CNS
[44] = test system: SF-539 CNS
[45] = test system: SK-MEL-2 melanoma
[46] = test system: SK-MEL-28 melanoma
[47] = test system: SK-MEL-5 melanoma
[48] = test system: SK-OV-3 ovarian
[49] = test system: SN12C renal
[50] = test system: SNB-19 CNS
[51] = test system: SR leukemia
[52] = test system: SW-620 colon
[53] = test system: T-47D breast
[54] = test system: TK-10 renal
[55] = test system: U251 CNS
[56] = test system: UACC-257 melanoma
[57] = test system: UACC-62 melanoma
[58] = test system: UO-31 renal
[59] = test system: SNB-75 CNS
[60] = test system: DLD-1 colon
[61] = test system: DMS 114 small cell lung
[62] = test system: DMS 273 small cell lung
[63] = test system: HOP-18 NSCLC
[64] = test system: KM20L2 colon
[65] = test system: LXFL 529 NSCLC
[66] = test system: M19-MEL melanoma
[67] = test system: SNB-78 CNS

For COC(=O)c1c(C)nc(C)c(N=O)c1-c1ccccc1C(F)(F)F, the TGI [1] was 31.5 µM, the TGI [2] was over 100 µM and the TGI [3] was over 100 µM. It also gave a TGI [4] of over 100 µM, a TGI [5] of 33.6 µM and a TGI [6] of 23 µM. For the same compound, the TGI [7] was over 100 µM, the TGI [8] was over 100 µM and the TGI [9] was over 100 µM. The TGI [10] was over 100 µM, the TGI [11] was over 100 µM and the TGI [12] was 31.8 µM. It also gave a TGI [13] of 45.8 µM, a TGI [14] of over 100 µM and a TGI [15] of over 100 µM. For the same compound, the TGI [16] was 34.8 µM, the TGI [17] was 44.8 µM and the TGI [18] was 29.1 µM. The TGI [19] was 33.9 µM, the TGI [20] was over 100 µM and the TGI [21] was 35.9 µM. The TGI [22] was 30.8 µM, the TGI [23] was 47.1 µM and the TGI [24] was 30.2 µM. For the same compound, the TGI [25] was 40.8 µM, the TGI [26] was 32.3 µM and the TGI [27] was 56.3 µM. For the same compound, the TGI [28] was 43.6 µM, the TGI [29] was over 100 µM and the TGI [30] was 43.2 µM. The TGI [31] was 48.5 µM, the TGI [32] was over 100 µM and the TGI [33] was 18.7 µM. For the same compound, the TGI [34] was 44.5 µM, the TGI [35] was 31.3 µM and the TGI [36] was 31.8 µM. It also gave a TGI [37] of 51.4 µM, a TGI [38] of 35.6 µM and a TGI [39] of over 100 µM. For the same compound, the TGI [40] was over 100 µM, the TGI [41] was 29.7 µM and the TGI [42] was 30.8 µM. It also gave a TGI [43] of over 100 µM, a TGI [44] of 45.8 µM and a TGI [45] of over 100 µM. The TGI [46] was 28.4 µM, the TGI [47] was 89.4 µM and the TGI [48] was over 100 µM. The TGI [49] was 38.6 µM, the TGI [50] was over 100 µM and the TGI [51] was over 100 µM. The TGI [52] was 30.1 µM, the TGI [53] was 39.5 µM and the TGI [54] was 30 µM. For the same compound, the TGI [55] was 34.5 µM, the TGI [56] was 32.8 µM and the TGI [57] was over 100 µM. It also gave a TGI [58] of 37.1 µM.
CCOC(=O)c1cc(-c2ccc(OC)c(OC)c2)cn1C gave a TGI [1] of over 10 µM, a TGI [2] of over 10 µM and a TGI [3] of over 10 µM. For the same compound, the TGI [4] was over 10 µM, the TGI [5] was over 10 µM and the TGI [6] was over 10 µM. It also gave a TGI [7] of over 10 µM, a TGI [8] of over 10 µM and a TGI [9] of over 10 µM. The TGI [10] was over 10 µM, the TGI [11] was over 10 µM and the TGI [12] was over 10 µM. The TGI [13] was over 10 µM, the TGI [14] was over 10 µM and the TGI [15] was over 10 µM. The TGI [16] was over 10 µM, the TGI [17] was over 10 µM and the TGI [18] was over 10 µM. For the same compound, the TGI [19] was over 10 µM, the TGI [20] was over 10 µM and the TGI [21] was over 10 µM. It also gave a TGI [22] of over 10 µM, a TGI [23] of over 10 µM and a TGI [24] of over 10 µM. For the same compound, the TGI [25] was over 10 µM, the TGI [26] was over 10 µM and the TGI [27] was over 10 µM. It also gave a TGI [28] of over 10 µM, a TGI [29] of over 10 µM and a TGI [30] of over 10 µM. For the same compound, the TGI [31] was over 10 µM, the TGI [32] was over 10 µM and the TGI [33] was over 10 µM. For the same compound, the TGI [34] was over 10 µM, the TGI [35] was over 10 µM and the TGI [36] was over 10 µM. It also gave a TGI [37] of over 10 µM, a TGI [38] of over 10 µM and a TGI [39] of over 10 µM. The TGI [40] was over 10 µM, the TGI [41] was over 10 µM and the TGI [42] was over 10 µM. The TGI [43] was over 10 µM, the TGI [44] was over 10 µM and the TGI [45] was over 10 µM. For the same compound, the TGI [46] was over 10 µM, the TGI [47] was over 10 µM and the TGI [48] was over 10 µM. The TGI [49] was over 10 µM, the TGI [50] was over 10 µM and the TGI [59] was over 10 µM. The TGI [51] was over 10 µM, the TGI [53] was over 10 µM and the TGI [54] was over 10 µM. The TGI [55] was over 10 µM, the TGI [56] was over 10 µM and the TGI [57] was over 10 µM. For the same compound, the TGI [58] was over 10 µM.
In the case of CCC(C#N)N(Cc1cccc(CN(C(C)=O)C(C#N)CC)c1)C(C)=O (centres undefined), the TGI [1] is reported as over 100 µM, the TGI [2] is reported as over 100 µM and the TGI [3] is reported as over 100 µM. For the same compound, the TGI [4] was over 100 µM, the TGI [5] was over 100 µM and the TGI [6] was over 100 µM. It also gave a TGI [7] of over 100 µM, a TGI [8] of over 100 µM and a TGI [9] of over 100 µM. For the same compound, the TGI [10] was over 100 µM, the TGI [11] was over 100 µM and the TGI [12] was over 100 µM. The TGI [13] was over 100 µM, the TGI [14] was over 100 µM and the TGI [15] was over 100 µM. It also gave a TGI [16] of over 100 µM, a TGI [17] of over 100 µM and a TGI [18] of over 100 µM. For the same compound, the TGI [19] was over 100 µM, the TGI [20] was over 100 µM and the TGI [21] was over 100 µM. It also gave a TGI [22] of over 100 µM, a TGI [23] of over 100 µM and a TGI [24] of over 100 µM. The TGI [25] was over 100 µM, the TGI [26] was over 100 µM and the TGI [27] was over 100 µM. For the same compound, the TGI [28] was over 100 µM, the TGI [29] was over 100 µM and the TGI [30] was over 100 µM. It also gave a TGI [31] of over 100 µM, a TGI [33] of over 100 µM and a TGI [34] of over 100 µM. The TGI [35] was over 100 µM, the TGI [36] was over 100 µM and the TGI [37] was over 100 µM. The TGI [38] was over 100 µM, the TGI [39] was over 100 µM and the TGI [40] was over 100 µM. The TGI [41] was over 100 µM, the TGI [42] was over 100 µM and the TGI [43] was over 100 µM. It also gave a TGI [44] of over 100 µM, a TGI [45] of over 100 µM and a TGI [47] of over 100 µM. The TGI [48] was over 100 µM, the TGI [49] was over 100 µM and the TGI [50] was over 100 µM. For the same compound, the TGI [59] was over 100 µM, the TGI [51] was over 100 µM and the TGI [52] was over 100 µM. The TGI [53] was over 100 µM, the TGI [54] was over 100 µM and the TGI [55] was over 100 µM. It also gave a TGI [56] of over 100 µM, a TGI [57] of over 100 µM and a TGI [58] of over 100 µM.
COC(=O)C1Cc2c([nH]c3ccccc23)C=N1 (centres undefined) showed a TGI [1] of over 100 µM, a TGI [2] of over 100 µM and a TGI [3] of over 100 µM. The TGI [4] was over 100 µM, the TGI [6] was over 100 µM and the TGI [7] was over 100 µM. It also gave a TGI [8] of over 100 µM, a TGI [60] of over 100 µM and a TGI [61] of over 100 µM. It also gave a TGI [62] of over 100 µM, a TGI [10] of over 100 µM and a TGI [11] of over 100 µM. For the same compound, the TGI [12] was over 100 µM, the TGI [13] was over 100 µM and the TGI [14] was over 100 µM. For the same compound, the TGI [63] was over 100 µM, the TGI [15] was over 100 µM and the TGI [16] was over 100 µM. The TGI [18] was over 100 µM, the TGI [19] was over 100 µM and the TGI [20] was over 100 µM. The TGI [21] was over 100 µM, the TGI [64] was over 100 µM and the TGI [22] was over 100 µM. It also gave a TGI [65] of over 100 µM, a TGI [23] of over 100 µM and a TGI [66] of over 100 µM. The TGI [24] was over 100 µM, the TGI [29] was over 100 µM and the TGI [30] was over 100 µM. For the same compound, the TGI [31] was over 100 µM, the TGI [32] was over 100 µM and the TGI [33] was over 100 µM. The TGI [35] was over 100 µM, the TGI [36] was over 100 µM and the TGI [37] was over 100 µM. The TGI [38] was over 100 µM, the TGI [40] was over 100 µM and the TGI [41] was over 100 µM. For the same compound, the TGI [42] was over 100 µM, the TGI [43] was over 100 µM and the TGI [44] was over 100 µM. For the same compound, the TGI [46] was over 100 µM, the TGI [47] was over 100 µM and the TGI [48] was over 100 µM. For the same compound, the TGI [49] was over 100 µM, the TGI [50] was over 100 µM and the TGI [59] was over 100 µM. The TGI [67] was over 100 µM, the TGI [51] was over 100 µM and the TGI [52] was over 100 µM. The TGI [54] was over 100 µM, the TGI [55] was over 100 µM and the TGI [56] was over 100 µM. For the same compound, the TGI [57] was over 100 µM and the TGI [58] was over 100 µM.
